Reference: patent publication US9962388B2, “Pyrrolopyrimidine compounds used as TLR7 agonist” (priority 2014, dated 2018)

target: Toll-like receptor 7 (Homo sapiens (Human), UniProt Q9NYK1); experiment: Toll-like receptor 7 in vitro receptor binding activity screen (HEK-blue hTLR7 cell, alkaline phosphatase/Quanti-Blue readout); type: cell-based; details: HEK-blue hTLR7 cell, 24 h; read-out: TLR7 EC50
Protocol: Toll-Like Receptor 7 and Toll-Like Receptor 8 In Vitro Receptor Binding Activity Screen
HEK-blue hTLR7 cell and HEK-blue hTLR8 cell (available from InvivoGen)
1. Preparation of 96-well compound plate:
The compounds were gradient diluted with DMSO in 3-fold using liquid work station POD starting at a concentration of 10 mmol/L and 10 points were diluted (2nd column to 11th column, and each point was duplicated). At 12th column, 1 μL of 5 mg/mL positive compound R848 was added as positive control; and at 1st column, 1 μL of DMSO was added as negative control. Each well contained 1 μL of DMSO.
2. The cells in culture flask were collected and the cell density was diluted to 250,000 cells/mL.
3. 200 μL (50,000 cells/well) of cell suspension was added into prepared compound plate and the final concentration of DMSO in each well was 0.5%.
4. The culture plates containing cells and the compounds were incubated in CO2 incubator for 24 h at 37° C., 5% CO2.
5. After 24 h incubation, 20 μL of supernatant was removed from each well to a 96-well transparent assay plate. To each well of the assay plate was added 180 μL of Quanti-Blue reagent and the plate was incubated in an incubator at 37° C., 5% CO2 for 1 h.
6. After 1 h, the content of alkaline phosphatase in 20 μL of supernatant was determined using Microplate Reader OD650.
7. EC50 of each compound was obtained with Prism software.

Toll-like receptor 7, sequence (Q9NYK1 27-1049): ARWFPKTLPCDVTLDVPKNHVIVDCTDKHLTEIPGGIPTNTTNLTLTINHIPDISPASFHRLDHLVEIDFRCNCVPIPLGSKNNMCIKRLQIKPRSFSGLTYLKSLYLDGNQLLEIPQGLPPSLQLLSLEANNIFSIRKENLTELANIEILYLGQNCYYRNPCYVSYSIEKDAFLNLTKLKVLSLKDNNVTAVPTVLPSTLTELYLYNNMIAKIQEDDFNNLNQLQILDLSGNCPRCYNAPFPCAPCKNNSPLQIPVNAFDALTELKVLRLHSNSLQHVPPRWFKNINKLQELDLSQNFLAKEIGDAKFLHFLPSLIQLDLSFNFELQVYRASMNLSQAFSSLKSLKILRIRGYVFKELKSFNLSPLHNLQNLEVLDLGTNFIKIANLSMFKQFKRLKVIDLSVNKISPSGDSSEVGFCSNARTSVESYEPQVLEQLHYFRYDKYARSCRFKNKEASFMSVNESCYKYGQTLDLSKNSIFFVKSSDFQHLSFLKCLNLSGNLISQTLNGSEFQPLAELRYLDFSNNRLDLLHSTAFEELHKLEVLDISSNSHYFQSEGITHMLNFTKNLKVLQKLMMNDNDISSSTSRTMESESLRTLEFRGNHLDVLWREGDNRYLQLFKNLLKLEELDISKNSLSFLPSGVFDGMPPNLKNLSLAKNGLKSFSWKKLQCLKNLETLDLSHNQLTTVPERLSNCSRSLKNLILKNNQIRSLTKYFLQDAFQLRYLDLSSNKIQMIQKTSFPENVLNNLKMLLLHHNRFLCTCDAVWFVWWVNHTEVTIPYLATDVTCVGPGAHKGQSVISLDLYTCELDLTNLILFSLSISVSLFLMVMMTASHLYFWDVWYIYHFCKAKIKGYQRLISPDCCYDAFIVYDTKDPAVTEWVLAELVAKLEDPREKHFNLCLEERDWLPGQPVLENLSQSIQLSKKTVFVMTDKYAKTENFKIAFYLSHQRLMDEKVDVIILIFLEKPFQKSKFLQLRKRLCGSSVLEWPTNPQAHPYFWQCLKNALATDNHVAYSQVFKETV

CCCCOc1nc(N)c2[nH]c(C#N)c(Cc3ccc(CN4CCN(C)CC4)cc3)c2n1 [Example 44, 4-amino-2-butoxy-7-(4-((4-methylpiperazine-1-yl)methyl)benzyl)-5H-pyrrolo[3,2-d]pyrimidine-6-carbonitrile] and CCCCOc1nc(N)c2[nH]c(C#N)c(Cc3ccc(CN4CCOCC4)cc3)c2n1 [Example 43, 4-amino-2-butoxy-7-(4-(morpholinomethyl)benzyl)-5H-pyrrolo[3,2-d]pyrimidine-6-carbonitrile] fall in the same range of EC50: 1 to 100 nM for the first, 1 to 100 nM for the second.

CCCCOc1nc(N)c2[nH]cc(Cc3cccc(CN)c3)c2n1 [Example 3, 7-(3-(aminomethyl)benzyl)-2-butoxy-5H-pyrrolo[3,2-d]pyrimidine-4-amine] and CCCCOc1nc(N)c2[nH]cc(Cc3cccc(CN4CCOCC4)c3)c2n1 [Example 2, 2-butoxy-7-(3-(morpholinomethyl)benzyl)-5H-pyrrolo[3,2-d]pyrimidine-4-amine] fall in the same range of EC50: 1000 to 50000 nM for the first, 1000 to 50000 nM for the second.

CCCCOc1nc(N)c2[nH]cc(Cc3ccc(CN(C)C)cc3)c2n1 [Example 11, 2-butoxy-7-(4-((dimethylamino)methyl)benzyl)-5H-pyrrolo[3,2-d]pyrimidine-4-amine] and CCCCOc1nc(N)c2[nH]cc(Cc3ccc(CN(CC)CC)cc3)c2n1 [Example 12, 2-butoxy-7-(4-((diethylamino)methyl)benzyl)-5H-pyrrolo[3,2-d]pyrimidine-4-amine] fall in the same range of EC50: 100 to 1000 nM for the first, 100 to 1000 nM for the second.

COCCOc1nc(N)c2[nH]cc(Cc3ccc(C)nc3)c2n1 [Example 36, 2-(2-methoxylethoxyl)-7-((6-methylpyridine-3-yl)methyl)-5H-pyrrolo[3,2-d]pyrimidine-4-amine] and COCCOc1nc(N)c2[nH]cc(Cc3ccc(Cl)cn3)c2n1 [Example 37, 7-((5-chloropyridine-2-yl)methyl)-2-(2-methoxylethoxyl)-5H-pyrrolo[3,2-d]pyrimidine-4-amine] fall in the same range of EC50: 1000 to 50000 nM for the first, 1000 to 50000 nM for the second.

CCCCOc1nc(N)c2[nH]cc(Cc3ccc(CN4CCCC4)cn3)c2n1 [Example 40, 2-butoxy-7-((5-(pyrrolidine-1-ylmethyl)pyridine-2-yl)methyl)-5H-pyrrolo[3,2-d]pyrimidine-4-amine] and COCCOc1nc(N)c2[nH]cc(Cc3ccc(CN4CCCC4)nc3)c2n1 [Example 38, 2-(2-methoxylethoxyl-)-7-((6-(pyrrolidine-1-ylmethyl)pyridine-3-yl)methyl)-5H-pyrrolo[3,2-d]pyrimidine-4-amine] fall in the same range of EC50: 100 to 1000 nM for the first, 100 to 1000 nM for the second.

CCCCOc1nc(N)c2[nH]cc(Cc3cccc(CN4CCN(C)CC4)c3)c2n1 [Example 1, 2-butoxy-7-(3-((4-methylpiperazine-1-yl)methyl)benzyl)-5H-pyrrolo[3,2-d]pyrimidine-4-amine] and CCCCOc1nc(N)c2[nH]cc(Cc3ccc(CN4CCN(C)CC4)cc3)c2n1 [Example 10, 2-butoxy-7-(4-((4-methylpiperazine-1-yl)methyl)benzyl)-5H-pyrrolo[3,2-d]pyrimidine-4-amine] fall in the same range of EC50: 1000 to 50000 nM for the first, 1000 to 50000 nM for the second.

CCCCOc1nc(N)c2[nH]cc(Cc3ccc(CN4CCCN(C)CC4)cc3)c2n1 [Example 16, 2-butoxy-7-(4-((4-methyl-1,4-diazepan-1-yl)methyl)benzyl)-5H-pyrrolo[3,2-d]pyrimidine-4-amine] and CCCCOc1nc(N)c2[nH]cc(Cc3ccc(CN4CCC4)cc3)c2n1 [Example 14, 7-(4-(azetidin-1-ylmethyl)benzyl)-2-butoxy-5H-pyrrolo[3,2-d]pyrimidine-4-amine] fall in the same range of EC50: 100 to 1000 nM for the first, 100 to 1000 nM for the second.

First: CCCCOc1nc(N)c2[nH]cc(Cc3ccc(CN4CCCCC4)cc3)c2n1 [Example 8, 2-butoxy-7-(4-(piperidine-1-ylmethyl)benzyl)-5H-pyrrolo[3,2-d]pyrimidine-4-amine]
Second: CCCCOc1nc(N)c2[nH]cc(Cc3ccc(CN4CCOCC4)cc3)c2n1 [Example 9, 2-butoxy-7-(4-(morpholinomethyl)benzyl)-5H-pyrrolo[3,2-d]pyrimidine-4-amine]
The EC50 of the first is lower: 100 to 1000 nM for the first, 1000 to 50000 nM for the second. The first is the more potent here.

COCCOc1nc(N)c2[nH]cc(Cc3ccc(N4CCN(C)CC4=O)cc3)c2n1 [Example 39, 1-(4-((4-amino-2-(2-methoxylethoxyl)-5H-pyrrolo[3,2-d]pyrimidine-7-yl)methyl)phenyl)-4-methylpiperazine-2-one] and CCCCOc1nc(N)c2[nH]cc(Cc3ccc(N4CCN(C)CC4=O)cc3)c2n1 [Example 27, 1-(4-((4-amino-2-butoxy-5H-pyrrolo[3,2-d]pyrimidine-7-yl)methyl)phenyl)-4-methylpiperazine-2-one] fall in the same range of EC50: 100 to 1000 nM for the first, 100 to 1000 nM for the second.

CCCCOc1nc(N)c2[nH]cc(Cc3ccc(CN4C[C@@H]5C[C@H]4CO5)cc3)c2n1 [Example 18, 7-(4-((1 S,4S)-2-oxa-5-azabicyclo[2.2.1]heptane-5-ylmethyl)benzyl)-2-butoxy-5H-pyrrolo[3,2-d]pyrimidine-4-amine] and CCCCOc1nc(N)c2[nH]cc(Cc3ccc(CN4CCC(O)C4)cc3)c2n1 (stereo not shown) [Example 7, 1-(4-((4-amino-2-butoxy-5H-pyrrolo[3,2-d]pyrimidine-7-1)methyl)benzyl)pyrrolidine-3-ol] fall in the same range of EC50: 100 to 1000 nM for the first, 100 to 1000 nM for the second.

CCCCOc1nc(N)c2[nH]cc(Cc3ccc(CN(CCC)CCC)cc3)c2n1 [Example 13, 2-butoxy-7-(4-((dipropylamino)methyl)benzyl)-5H-pyrrolo[3,2-d]pyrimidine-4-amine] and CCCCOc1nc(N)c2[nH]cc(Cc3ccc(CN4CC(OC)C4)cc3)c2n1 [Example 15, 2-butoxy-7-(4-((3-methoxylazetidin-1-yl)methyl)benzyl)-5H-pyrrolo[3,2-d]pyrimidine-4-amine] fall in the same range of EC50: 100 to 1000 nM for the first, 100 to 1000 nM for the second.

CCCCOc1nc(N)c2[nH]cc(Cc3ccc(CN4CC(C)OC(C)C4)cc3)c2n1 (stereo not shown) [Example 17, 2-butoxy-7-(4-((2,6-dimethylmorpholinyl)methyl)benzyl)-5H-pyrrolo[3,2-d]pyrimidine-4-amine] and CCCCOc1nc(N)c2[nH]cc(Cc3ccc(CN4CCC(F)C4)cc3)c2n1 (stereo not shown) [Example 6, 2-butoxy-7-(4-((3-fluoropyrrolidine-1-yl)methyl)benzyl)-5H-pyrrolo[3,2-d]pyrimidine-4-amine] fall in the same range of EC50: 100 to 1000 nM for the first, 100 to 1000 nM for the second.

First: CCCCOc1nc(N)c2[nH]c(C#N)c(Cc3ccc(CN4CCCC4)nc3)c2n1 [Example 41, 4-amino-2-butoxy-7-((6-(pyrrolidine-1-ylmethyl)pyridine-3-yl)methyl)-5H-pyrrolo[3,2-d]pyrimidine-6-carbonitrile]
Second: CCCCOc1nc(N)c2[nH]c(C(N)=O)c(Cc3ccc(CN4CCCC4)cc3)c2n1 [Example 45, 4-amino-2-butoxy-7-(4-(pyrrolidine-1-ylmethyl)benzyl)-5H-pyrrolo[3,2-d]pyrimidine-6-formamide]
The EC50 of the first is lower: 1 to 100 nM for the first, 100 to 1000 nM for the second.

CCCCOc1nc(N)c2[nH]cc(Cc3ccc4c(c3)CCN(C)C4)c2n1 [Example 33, 2-butoxy-7-((2-methyl-1,2,3,4-tetrahydroisoquinoline-6-yl)methyl)-5H-pyrrolo[3,2-d]pyrimidine-4-amine] and CCCCOc1nc(N)c2[nH]cc(Cc3ccc4c(c3)CCN(CC)C4)c2n1 [Example 34, 2-butoxy-7-((2-ethyl-1,2,3,4-tetrahydroisoquinoline-6-yl)methyl)-5H-pyrrolo[3,2-d]pyrimidine-4-amine] fall in the same range of EC50: 100 to 1000 nM for the first, 100 to 1000 nM for the second.

CCCCOc1nc(N)c2[nH]cc(Cc3ccc(CN4CCN(C(C)C)CC4)cc3)c2n1 [Example 20, 2-butoxy-7-(4-((4-isopropylpiperazine-1-yl)methyl)benzyl)-5H-pyrrolo[3,2-d]pyrimidine-4-amine] and CCCCOc1nc(N)c2[nH]cc(Cc3ccc(CN4CCC(OC)CC4)cc3)c2n1 [Example 19, 2-butoxy-7-(4-((4-methoxylpiperidine-1-yl)methyl)benzyl)-5H-pyrrolo[3,2-d]pyrimidine-4-amine] fall in the same range of EC50: 100 to 1000 nM for the first, 100 to 1000 nM for the second.

First: CCCCOc1nc(N)c2[nH]cc(Cc3cccc(CCN4CCCC4)c3)c2n1 [Example 23, 2-butoxy-7-(3-(2-(pyrrolidine-1-yl)ethyl)benzyl)-5H-pyrrolo[3,2-d]pyrimidine-4-amine]
Second: CCCCOc1nc(N)c2[nH]cc(Cc3ccc(C(C)N4CCCC4)cc3)c2n1 (stereo not shown) [Example 24, 2-butoxy-7-(4-(1-(pyrrolidine-1-yl)ethyl)benzyl)-5H-pyrrolo[3,2-d]pyrimidine-4-amine]
The EC50 of the first is higher: 1000 to 50000 nM for the first, 100 to 1000 nM for the second.

Compared with CCCCOc1nc(N)c2[nH]cc(Cc3ccc(C4CCN(C)CC4)cc3)c2n1 [Example 25, 2-butoxy-7-(4-(1-methylpiperidine-4-yl)benzyl)-5H-pyrrolo[3,2-d]pyrimidine-4-amine], CCCCOc1nc(N)c2[nH]cc(Cc3ccc(C4CCCN4C)cc3)c2n1 (stereo not shown) [Example 26, 2-butoxy-7-(4-(1-methylpyrrolidine-2-yl)benzyl)-5H-pyrrolo[3,2-d]pyrimidine-4-amine] is higher in EC50: 1 to 100 nM for the first, 100 to 1000 nM for the second. The first is the more potent here.

Compared with COCCOc1nc(N)c2[nH]cc(Cc3ccccc3)c2n1 [Example 35, 7-benzyl-2-(2-methoxylethoxyl)-5H-pyrrolo[3,2-d]pyrimidine-4-amine], CCCCOc1nc(N)c2[nH]cc(Cc3ccc4c(c3)CCNC4)c2n1 [Example 32, 2-butoxy-7-((1,2,3,4-tetrahydroisoquinoline-6-yl)methyl)-5H-pyrrolo[3,2-d]pyrimidine-4-amine] is lower in EC50: 1000 to 50000 nM for the first, 100 to 1000 nM for the second. The second is the more potent here.

CCCCOc1nc(N)c2[nH]cc(Cc3ccc(CN4CCC(F)(F)C4)cc3)c2n1 [Example 5] showed an EC50 of 1000 to 50000 nM.
